pEC50: −log10 of the molar value.
How the values were obtained:
equine laminitis = test: Oral treatment of horses with laminitis (case examples); format: in vivo, horse
Protocol: The preferred form of practicing the present method will now be described for a horse weighing approximately 500 kg. In practicing the present method, the four main ingredients that are administered to prevent, treat and/or cure laminitis are: choline bitartrate, L-tyrosine, Niacin, and d-Calcium Pantothenate. These ingredients may be administered in corresponding approximate ratios of 40:41:8:16 (by weight). In the preferred embodiment, an approximately 35 day supply of the treatment includes 80 grams of choline bitartrate, 82 grams of L-tyrosine, 16 grams of niacin, and 32 grams of d-calcium pantothenate. Each dose for oral administration contains approximately 1127.5 mg of choline bitartrate, 1155.6 mg of L-tyrosine, 225.5 mg of niacin, and 451.1 mg of d-Calcium pantothenate. Preferably, this dosage is administered twice per day to an affected horse.
A quarter-horse mare first experienced laminitis at age 5 after exposure to septic waste from a failing septic field. This first bout with laminitis lasted roughly two years. At age 9, the mare was left on a heavily grazed pasture for one day and developed laminitis, the second onset of the disease during its life, presumably from exposure to fructans in grass. Transportation of the mare exacerbated the laminitis symptoms. The mare recovered gradually, but spent a lot of time lying down. […]

NE synthesis = details: analogous to the KM of the overall reaction; read-out: concentration of tyrosine at the half-maximal rate of NE synthesis; cited from earlier work
[1] = target: tyrosine hydroxylase (TH) (Homo sapiens, UniProt P07101); details: concentration of T at which the reaction proceeds at 50% of the maximal rate; cited from earlier work
tyrosine hydroxylase (TH), sequence (P07101 whole entry): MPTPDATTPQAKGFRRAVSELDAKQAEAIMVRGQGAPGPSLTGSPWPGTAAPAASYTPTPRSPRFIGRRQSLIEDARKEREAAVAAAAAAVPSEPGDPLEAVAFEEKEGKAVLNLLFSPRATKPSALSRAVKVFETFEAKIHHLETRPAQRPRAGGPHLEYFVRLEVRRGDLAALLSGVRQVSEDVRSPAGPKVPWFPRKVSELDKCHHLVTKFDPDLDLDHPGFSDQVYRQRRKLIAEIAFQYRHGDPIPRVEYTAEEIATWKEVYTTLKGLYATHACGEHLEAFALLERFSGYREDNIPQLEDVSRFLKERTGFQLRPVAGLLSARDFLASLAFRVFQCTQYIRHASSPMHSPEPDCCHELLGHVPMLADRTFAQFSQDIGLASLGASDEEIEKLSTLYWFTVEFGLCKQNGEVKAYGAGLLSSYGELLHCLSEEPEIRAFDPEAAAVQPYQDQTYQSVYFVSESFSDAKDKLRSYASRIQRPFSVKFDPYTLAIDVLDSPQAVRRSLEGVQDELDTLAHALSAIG

In the case of `N[C@@H](Cc1ccc(O)cc1)C(=O)O` [tyrosine, 4-hydroxyphenylalanine], the “condition of the mare with laminitis” value (equine laminitis; Example 1, quarter-horse mare, second onset of laminitis, initial dosing, daily for nearly 90 days) is listed as “improved the condition”, the recurrence of laminitis (equine laminitis; Example 2, ten year-old mare, recommended dosage after the bout) is listed as “did not re-experience laminitis” and the pEC50 (NE synthesis) is listed as 4.40 to 5.00. The Km [1] was roughly 25 µM.

— patent publication US20100227895A1, “METHOD FOR TREATING EQUINE LAMINITIS” (MPCO- THE MAGIC POWDER COMPANY, priority 2009, published 2010)
